Entries after “also recorded” stand apart in the source; their conditions may differ.
Tests used:
[1] = system: CD4+, Th1 and Th17 lymphocytes in EAE mice; test: Flow cytometry of lymph node, spleen, brain and spinal cord in EAE mice, prevention paradigm; type: in vivo, C57BL/6J mice
Procedure: (§1) Mice were killed with pentobarbital and perfused via cardiac puncture with ice-cold HBSS without cations. Brain, spinal cord (collected using hydrostatic pressure), spleen, and lymph node tissue were isolated after perfusion and were mechanically dissociated by passing through 100-μm cell strainers. For CNS tissue, after dissociation, infiltrating mononuclear cells were separated from myelin debris using a 37/70% percoll gradient. After dissociation, spleens were incubated in ACK lysis buffer to remove red blood cell contamination. Cells were counted using a MACSQuant flow cytometer (Miltenyi Biotec).
(§2) For surface marker and intracellular cytokine staining of T cells, the cells were first restimulated with a cell stimulation mixture with protein transport inhibitors (eBioscience, catalog #00-4975-03) for 4 h in cRPMI at 37° C. They then underwent live/dead and surface marker staining as earlier. For intracellular cytokine staining, cells were permeabilized and fixed using either IC Fixation buffer for cytokine analysis (eBioscience, 00-8222-49) or FoxP3 fixation/permeabilization buffer for transcription factor analysis (eBioscience, 00-5521-00) after manufacturer recommended protocol and incubated with specific conjugated antibodies for the specified proteins in permeabilization buffer for 1 h.
(§3) Cells were analyzed by flow cytometry using a MACSQuant flow cytometer (Miltenyi Biotec). Flow data analysis was performed in FlowJo (FlowJo) or FlowLogic (Inivai).
EAE was elicited by immunizing 8-12-wk-old C57BL/6J mice with MOG35-55. Neurologic symptoms of EAE were most evident 10-14 d after MOG immunization, peaking at about 16 d and then plateauing with slight diminution until 21 d. Mice were treated with bryo-1 (30 μg/kg) or vehicle by i.p. injection 3 d per week.

[2] = phase 2 clinical trials in humans; cited from earlier work
[3] = system: EAE (MOG35-55 immunized mice); test: EAE prevention paradigm, clinical scoring; type: in vivo, C57BL/6J mice; conditions: 30 μg/kg i.p. 3 d per week from day of MOG35-55 immunization (day 0)
Description: Experimental autoimmune encephalomyelitis (EAE) is an experimental animal model that recapitulates some aspects of MS. In the active-induction model of mouse EAE, mice are immunized with a peptide derived from myelin oligodendrocyte glycoprotein (MOG35-55), resulting in robust CNS inflammation causing demyelination, axonal injury, and motor weakness/paralysis.
(§4) Active EAE was induced in 8-12 wk-old female C57BL/6J mice that had been allowed to acclimatize to the animal facility for at least 1 wk. MOG35-55 peptide dissolved in PBS at a concentration of 2 mg/mL was mixed 1:1 with complete Freund's adjuvant to make an emulsion. On day 0, mice were immunized by injecting 50 μL of the emulsion s.c. into each of two sites on the lateral abdomen. In addition, on day 0 and again on day 2, mice were injected intraperitoneally with 250 ng pertussis toxin. Mice were weighed and scored beginning on day 7 post-immunization. Scoring was performed in a blinded manner according to the following scale:
Bryo-1 was prepared by initially dissolving in 100% ethanol and then further diluting to 20% ethanol and 1% DMSO in PBS. The final concentration of bryo-1 was […] Mice were treated by i.p. injection of […] bryo-1 or an equal volume of vehicle control (20% ethanol and 1% DMSO in PBS) 3 d per week (Monday, Wednesday, Friday). […]

[4] = system: mixed glial cultures (MGCs); test: Mixed glial cultures, iNOS / Arg1 immunoblot; type: cell-based, C57BL/6J mice
Procedure: Mixed glial cultures (MGCs) obtained from the cerebral cortices of P1-P3 neonatal C57BL/6J mice were used, prepared as described by Saura et al., Glia (2003) 44:183-189. Mixed glial cultures were treated with LPS (FIG. 6A) or IL4 (FIG. 6B) ±vehicle or the indicated dose of bryo-1. Expression of iNOS or Argl, respectively, was assessed by immunoblot. Images are representative of 3 independent experiments.

[5] = system: CD4+, Th1 and Th17 lymphocytes in EAE mice; test: Flow cytometry of spinal cord in EAE mice treated from clinical score 1.0; type: in vivo, C57BL/6J mice; conditions: day 18 post-immunization (late peak), treatment started at score 1.0
Procedure: as §1, §2, §3

[6] = system: EAE (MOG35-55 immunized mice); test: EAE, late treatment initiated at day 28 post-immunization, clinical scoring; type: in vivo, C57BL/6J mice
Procedure: as §4
Bryo-1 was prepared by initially dissolving in 100% ethanol and then further diluting to 20% ethanol and 1% DMSO in PBS. The final concentration of bryo-1 was […] Mice were treated by i.p. injection of […] bryo-1 or an equal volume of vehicle control (20% ethanol and 1% DMSO in PBS) 3 d per week (Monday, Wednesday, Friday).
In a third set of experiments, mice were randomized and treatment was begun on day 28 post-immunization, more than 10 d after peak disease and once motor deficits had reached a stable plateau.
In another set of mice, to determine whether bryo-1 could reverse established neurologic deficits in EAE, mice were randomized and began treatment on day 28 post-immunization, more than 10 d after peak disease and once motor deficits had reached a stable plateau (FIG. 2C). […] Treatment was continued for just more than 3 wk and discontinued on day 51 post-immunization.

naive CD4+ lymphocytes = test: Naive CD4+ T cells stimulated with α-CD3/CD28 antibodies, flow cytometry; type: cell-based, C57BL/6J mice
Procedure: as §2
Spleens were harvested from 6-10-wk-old female C57BL/6J mice, and single-cell suspensions were generated in FACS buffer by disrupting spleens with the plunger of a syringe over a 70-μm nylon cell strainer (BD Falcon), pelleting cells by centrifugation (500×g for 8 min), and resuspending in fresh FACS buffer. Naive CD4^+ cells were then isolated by negative selection using an isolation kit from STEMCELL Technologies (catalog #19765).
Tissue culture plates were coated with α-CD3 antibody (BD Biosciences) by incubating them with 0.25-1.0 m/mL of antibody diluted in sterile PBS overnight at 4° C. or for 2-4 h at 37° C. The antibody solution was then removed, plates were washed once with sterile PBS, and naive CD4^+ T cells were seeded along with 0.25-1.0 m/mL α-CD28 antibody (BD Biosciences) in the presence or absence of the indicated doses of bryo-1. The cells were cultured for 3 d and then analyzed by flow cytometry.

[7] = brain and spinal cord, peak disease (day 14)
[8] = lymph nodes, 8 d after immunization, prevention paradigm
[9] = lymph nodes, day 8, prevention paradigm
[10] = peak disease (day 14), prophylactic treatment
[11] = spleen, day 8, prevention paradigm
[12] = 200 nM, cells stimulated with 0.25 μg/mL of α-CD3 and α-CD28 antibodies, 3 d

SMILES: CCC/C=C/C=C/C(=O)OC1/C(=C/C(=O)OC)CC2CC(C(C)O)OC(=O)CC(O)CC3CC(OC(C)=O)C(C)(C)C(O)(CC4C/C(=C/C(=O)OC)CC(/C=C/C(C)(C)C1(O)O2)O4)O3 (stereo not shown) [bryo-1, Bryostatin-1]
- percentage of infiltrating CD4+ lymphocytes expressing IL17 [1, 7]: unchanged
- proportion of infiltrating CD4+ lymphocytes producing IFNγ [1, 7]: decreased proportion
- numbers of Th1 (CD4+; IFNγ+) lymphocytes in lymph nodes [1, 8]: significantly decreased numbers
- numbers of Th17 (CD4+; IL17+) lymphocytes in lymph nodes [1, 8]: significantly decreased numbers
- numbers of total CD4+ (CD3+; CD4+) lymphocytes in lymph nodes [1, 8]: significantly decreased numbers
- proportion of Th1 cells among CD4+ lymphocytes [1, 9]: significantly lower proportion
- proportion of Th17 cells among CD4+ lymphocytes [1, 9]: insignificant decrease
- infiltration of CD4+ lymphocytes into the brain [1, 10]: diminished infiltration
- infiltration of CD4+ lymphocytes into the spinal cord [1, 10]: diminished infiltration
- numbers of Th1 lymphocytes in spleen [1, 11]: significantly decreased numbers
- numbers of Th17 cells in spleen [1, 11]: trend toward decreased
- numbers of total CD4+ lymphocytes in spleen [1, 11]: significantly decreased numbers
- safety profile [2]: favorable safety profile
- onset of EAE (clinical course) [3]: abolished the onset of EAE
- expression of Argl (M2 marker) ([4]; MGCs treated with IL4, dose as low as 1 nM): dramatically augmented expression
- induction of iNOS (an M1 marker) by LPS ([4]; MGCs treated with LPS): blocked the induction
- numbers of Th1 cells in spinal cord [5]: significantly diminished numbers
- numbers of Th17 cells in spinal cord [5]: significantly diminished numbers
- total CD4+ lymphocytes in spinal cord [5]: near-significant trend (P=0.06) toward decreased
- clinical scores after discontinuation vs vehicle-treated group ([6]; after discontinuation at day 51, followed through day 71): remained significantly lower; also recorded: remained below those of vehicle-treated mice
- clinical scores throughout the treatment period and for several days after discontinuation ([6]; treatment day 28 to day 51 post-immunization): steadily improved
- time after discontinuing at which neurologic deficits worsened ([6]; treatment discontinued on day 51 post-immunization): approximately 1 wk
- time to improvement after treatment initiation ([6]; treatment started day 28 post-immunization): within a week of treatment initiation
- established motor deficits ([6]; treatment started day 28 post-immunization, 30 μg/kg i.p. 3 d per week): reversed motor deficits
- expression of regulatory T-cell marker FoxP3 (naive CD4+ lymphocytes; [12]): increased expression
- up-regulation of CD44 (naive CD4+ lymphocytes; [12]): inhibited up-regulation
- up-regulation of IFNγ (naive CD4+ lymphocytes; [12]): inhibited up-regulation
- effects on CD44, IFNγ and FoxP3 with stronger T-cell stimulation (naive CD4+ lymphocytes; of α-CD3/CD28): these effects were lost

Reference: patent US12642786B2, “Methods, compositions and kits for treating multiple sclerosis and other disorders” (The Johns Hopkins University, priority 2018, dated 2026)
